Like-named read-outs stand apart in the source and are kept apart here.
Key:
[1] = tested on: HT-29 (colon adenocarcinoma); test: Inhibition of tumor cell growth, SRB-assay, HT-29; type: cell-based, human
Method: (§1) The KB cell lines were grown in Dulbecco's modified Eagle's medium (4,5 g glucose/l). To the cultures of KB-C1 cells 1 μg of colchicine/ml, and to the hydroxyurea-resistant KB-HU cells 1 mM hydroxyurea was added every other week. […] 3,000 - 10,000 cells in 200 μl medium were seeded per well into 96-well plates. […] Approximately 10,000 cells per 100 μl were seeded in 96-well plates. […] The substances were dissolved in dimethylsulfoxide (DMSO). […] Subsequently, the samples were fixed, washed, and the absorption was determined by a microplate reader.

[2] = tested on: HeLa (epitheloid cervix carcinoma); test: Inhibition of tumor cell growth, SRB-assay, HeLa; type: cell-based, human
MEXF 276L (melanoma) = test: Inhibition of tumor cell growth, SRB-assay, MEXF 276L; type: cell-based, human; conditions: Table 2, 72 hours, read-out: IC50 MEXF276L
Method: as §1

[3] = tested on: CCRF-CEM (acute lymphoblastic leukemia); test: Inhibition of tumor cell growth, MTT-assay, CCRF-CEM; type: cell-based, human; conditions: Table 2, 72 hours
[4] = tested on: Burkitt's lymphoma (CA 46, ATCC No. CRL 1648); test: Inhibition of tumor cell growth, MTT-assay, Burkitt's lymphoma; type: cell-based, human
Method: as §1

[5] = tested on: multidrug-resistant KB-C1 cells; test: Inhibition of tumor cell growth, SRB-assay, KB-C1; type: cell-based, human
Method: (§2) In order to obtain information about the growth-inhibiting action on tumor cells, the inhibition of the growth of the following human tumor cells was determined: Burkitt's lymphoma (CA 46, ATCC No. CRL 1648), CCRF-CEM (acute lymphoblastic leukemia, ATCC No. CCL 119), K562 (chronic myelogenous leukemia, ATTC No. CCL 243), HeLa (epitheloid cervix carcinoma, ATCC No. CCL 2), MEXF 276L (melanoma), HT-29 (colon adenocarcinoma, ATCC No. HTB 38), KB-3-1 (human oral epidermoid carcinoma, CTCC No. CCL 17), KB-HU hydroxyurea-resistant, multidrug-resistant KB-C1 cells (Akiyama et al, Cell. Mol Genet., 11:117–126, 1985). Burkitt's, CCRF-CEM, HeLa and MEXF 276L cells were grown in RPMI 1640, HT-29 cells in McCoy's 5A medium. The KB cell lines were grown in Dulbecco's modified Eagle's medium (4,5 g glucose/l). To the cultures of KB-C1 cells 1 μg of colchicine/ml, and to the hydroxyurea-resistant KB-HU cells 1 mM hydroxyurea was added every other week. The media were supplemented with 10% fetal calf serum (except Burkitt's lymphoma cells with 15%), 2 mM glutamine, 50 units/ml penicillin and 50 μg/ml streptomycin. Inhibition of growth of HeLa, HT-29, KB and MEXF 276L cells was detected by the SRB-assay (Skehan et al, J. Natl Cancer Inst., 82:1107–1112, 1990). 3,000 - 10,000 cells in 200 μl medium were seeded per well into 96-well plates. Dose-response curves for CCRF-CEM and Burkitt's lymphoma cells were effected by an MTT-assay (Mosman, J. Immunol Methods, 65:55–63, 1983) from Boehringer Mannheim, Mannheim, Germany. Approximately 10,000 cells per 100 μl were seeded in 96-well plates. After an initial incubation of four hours, various substance concentrations were added, and the cells were incubated at 37° C. in a water-saturated atmosphere of 95% air and 5% CO2 for 72 hours. The substances were dissolved in dimethylsulfoxide (DMSO). The concentration of DMSO was 0.5%, and this was not toxic to the cells. Subsequently, the samples were fixed, washed, and the absorption was determined by a microplate reader.

[6] = tested on: KB-3-1 (human oral epidermoid carcinoma); test: Inhibition of tumor cell growth, SRB-assay, KB-3-1; type: cell-based
Method: as §2

[7] = tested on: KB-HU hydroxyurea-resistant cells; test: Inhibition of tumor cell growth, SRB-assay, KB-HU; type: cell-based, human
Method: as §2

[8] = tested on: human tumor grafts (cell lines of FIG. 1); test: Colony forming assay (two-layer soft agar); type: cell-based; conditions: for IC50 / IC90 / Mean IC70: mean values of all cell lines tested in FIG. 1, continuous exposure 3 to 6 days
Method: An excellent correlation of drug response in patients and the colony forming assay has been found (Scholz et al, Eur. J. Cancer 25:901–905, 1990). Solid human tumors were grown as grafts in nude mice, removed from the latter, mechanically comminuted and subsequently incubated in an enzyme cocktail consisting of collagenase (1.2–1.8 U/ml), DNAse (375 U/ml) and hyaluronidase (29 U/ml) in RPMI 1640 medium at 37° C. for 30 minutes. The cell mixture was passed through sieves of 200 μm and 50 μm mesh size and washed thereafter twice with PBS (phosphate buffered saline). The percentage of live cells was determined using a Neubauer counting chamber and trypan blue staining.
The colony forming assay was performed according to a two-layer agar technique introduced and modified by Hamburger and Salmon (Hamburger and Salmon, Science, 197:461–463, 1977). The bottom layer consisted of 0.2 ml of Iscoves's Modified Dulbecco's medium with 20% fetal calf serum and 0.75% agar. 8×10^3 to 1.6×10^4 cells were added to the same medium and 0.4% agar and plated in 24-multiwell plates onto the base layer. One day after the plating (with continuous exposure), the substances were added in 0.2 ml medium. Each plate included six controls containing the solvent only, and the treated groups contained 6 concentrations of the substances, each in triplicate. Cultures were incubated at 37° C. and 7% CO2 in a water-saturated atmosphere for 3 to 6 days, depending on the doubling time of the tumor cells. At the time of maximum colony formation with a size of […], counts were performed with an automatic image analysis system. 24 h prior to counting, live colonies were stained with a sterile aqueous solution of 2-(4-iodophenyl)-3-(4-nitrophenyl)-5-phenyltetrazolium chloride (1 mg/ml, 100 μl/well). The results of the tests are given in FIG. 1, and in the following Table 5, respectively. […] Columns pointing towards the right show a slighter than average activity.

[9] = Table 2, 72 hours, read-out: IC50 HT-29 (converted)
[10] = Table 2, 72 hours, read-out: IC50 HeLa (converted)
[11] = Table 2, 72 hours, read-out: IC50 Burkitts
[12] = Table 4, 72 hours, read-out: In vitro-activity against human tumor cell lines, HT-29
[13] = Table 4, 72 hours, read-out: In vitro-activity against human tumor cell lines, HeLa
[14] = Table 4, 72 hours, read-out: In vitro-activity against human tumor cell lines, KB-C1
[15] = Table 4, 72 hours, read-out: In vitro-activity against human tumor cell lines, KB-3-1
[16] = Table 4, 72 hours, read-out: In vitro-activity against human tumor cell lines, KB-HU
[17] = Table 4, 72 hours, read-out: In vitro-activity against human tumor cell lines, Burkitts
[18] = Homo sapiens, HT-29, Table 4, 72 hours, read-out: In vitro-activity against human tumor cell lines, HT-29
[19] = Homo sapiens, HeLa, Table 4, 72 hours, read-out: In vitro-activity against human tumor cell lines, HeLa
[20] = Homo sapiens, KBC-1, Table 4, 72 hours, read-out: In vitro-activity against human tumor cell lines, KB-C1
[21] = Homo sapiens, KB 3-1, Table 4, 72 hours, read-out: In vitro-activity against human tumor cell lines, KB-3-1
[22] = Homo sapiens, Table 4, 72 hours, read-out: In vitro-activity against human tumor cell lines, KB-HU
[23] = Homo sapiens, CA46, Table 4, 72 hours, read-out: In vitro-activity against human tumor cell lines, Burkitts

| Compound | IC50 [1, 9] | IC50 [2, 10] | IC50 (MEXF 276L (melanoma)) | IC50 [3] | IC50 [4, 11] | IC50 [1, 12] | IC50 [2, 13] | IC50 [5, 14] | IC50 [6, 15] | IC50 [7, 16] | IC50 [4, 17] | Mean IC70 [8] | further results |
| --- | --- | --- | --- | --- | --- | --- | --- | --- | --- | --- | --- | --- | --- |
| CC(=NNc1nc2ccccc2[nH]1)c1cc(C)ncn1 [Ib-9] | 360 nM | 890 nM | 1140 nM | 660 nM | 390 nM |  |  |  |  |  |  |  |  |
| CC(=NNc1nc2ccccc2o1)c1ccc2ccccc2n1 [Ib-19] | 7760 nM | 4530 nM | > 10000 nM | 7040 nM | 5490 nM |  |  |  |  |  |  |  |  |
| CC(=NNc1nc2ccccc2[nH]1)c1nccnc1C [Ib-14] | 2230 nM | 3530 nM | 4240 nM | 2170 nM | 3370 nM |  |  |  |  |  |  |  |  |
| CC(=NNc1nc2ccccc2n1C)c1ccc(-c2ccccc2)cn1 [Id-16] |  |  |  |  |  | 250 nM | 180 nM | 180 nM | 250 nM | 190 nM | 30 nM | 2.084 µM | IC50 [8]: 965 nM; IC90 [8]: 7.45 µM |
| CC(=NNc1nc2ccccc2o1)c1cc(C)ncn1 [Ib-10] | 120 nM | 210 nM | 1220 nM | 220 nM | 40 nM |  |  |  |  |  |  |  |  |
| CC(=NNc1nc2ccccc2[nH]1)c1cnc(C)cn1 [Ib-16] | 880 nM | 1490 nM | 2000 nM | 840 nM | 1220 nM |  |  |  |  |  |  |  |  |
| CC(=NNc1nc2ccccc2n1C)c1cc(-c2ccccc2)ccn1 [Id-15] |  |  |  |  |  | 50 nM | 40 nM | 230 nM | 140 nM | 120 nM | 30 nM | 1.017 µM | IC50 [8]: 429 nM; IC90 [8]: 5.67 µM |
| CC(=NNc1nc2ccccc2[nH]1)c1cccnn1 [Ib-1] | 2060 nM | 1230 nM | 2140 nM | 980 nM | 840 nM |  |  |  |  |  |  |  |  |
| CC(=NNc1nc2ccccc2n1C)c1cccc(Cl)n1 [Id-5] |  |  |  |  |  | 320 nM | 190 nM | 30 nM | 7 nM | 20 nM | 12 nM | 5.740 µM | IC50 [8]: 3300 nM; IC90 [8]: 9.38 µM |
| CC(=NNc1nc2ccccc2n1C)c1ncccc1N(C)C [Id-11] |  |  |  |  |  | 160 nM | 20 nM | 60 nM | 8 nM | 240 nM | 2 nM | 0.397 µM | IC50 [8]: 137 nM; IC90 [8]: 2.9 µM |
| CC(=NNc1nc2ccccc2n1C)c1cc(Cl)ccn1 [Id-4, 1-(4-Chloro-2-pyridyl)-1-ethanone-1-(1-methyl-1H-benzo[d]imidazol-2-yl)-hydrazone] |  |  |  |  |  |  |  |  |  |  |  | 0.956 µM | IC50 [1, 18]: 520 nM; IC50 [2, 19]: 170 nM; IC50 [5, 20]: 90 nM; IC50 [6, 21]: 71 nM; IC50 [7, 22]: 270 nM; IC50 [4, 23]: 4 nM; IC50 ([8]; Homo sapiens): 301 nM; IC90 ([8]; Homo sapiens): 4.29 µM; tumor type selectivity ([8]; colony forming assay, IC70 pattern, FIG. 1): selectivity for colon, breast, ovarian, and uterus tumors |
| CC(=NNc1nc2ccccc2n1C)c1ncccc1-c1ccccc1 [Id-14] |  |  |  |  |  | 70 nM | 70 nM | 1420 nM | 550 nM | 700 nM | 10 nM |  |  |
| CC(=NNc1nc2ccccc2o1)c1ccccn1 [Ia-6] |  |  |  |  |  |  |  |  |  |  |  |  | IC50 ([1]; Table 1, 72 hours, read-out: IC50 HT-29 (converted)): 130 nM; IC50 ([2]; Table 1, 72 hours, read-out: IC50 HeLa (converted)): 23 nM; IC50 ([5]; Table 1, 72 hours, read-out: IC50 KB-Cl): 610 nM; IC50 ([6]; Table 1, 72 hours, read-out: IC50 KB-3-1): 210 nM; IC50 ([7]; Table 1, 72 hours, read-out: IC50 KB-HU): 320 nM; IC50 ([4]; Table 1, 72 hours, read-out: IC50 Burkitts): 9 nM |
| CC(=NNc1nc2ccccc2n1C)c1cccc(N(C)C)n1 [Id-13] |  |  |  |  |  | 17600 nM | 6600 nM | 29500 nM | 4020 nM | 4900 nM | 2010 nM |  |  |
| COc1cccnc1C(C)=NNc1nc2ccccc2n1C [Id-1, 1-(3-Methoxy-2-pyridyl)-1-ethanone-1-(1-methyl-1H-benzo[d]imidazol-2-yl)-hydrazone] |  |  |  |  |  |  |  |  |  |  |  |  | IC50 [1, 18]: 230 nM; IC50 [2, 19]: 50 nM; IC50 [5, 20]: 870 nM; IC50 [6, 21]: 20 nM; IC50 [7, 22]: 10 nM; IC50 [4, 23]: 1 nM |

Reference: patent publication US7112680B2, “Heterocyclic hydrazones for use as anti-cancer agents” (Austria Wirtschaftsservice Gesellschaft MIT Beschrankter …, priority 2000, dated 2006)
